Results as given in patent publication US11339183B2, “Phosphate and phosphonate derivatives of 7-amino-5-thio-thiazolo[4,5-d]pyrimidines and their use in treating conditions associated with elevated levels of CX3CR1 and/or CX3CL1” (KANCERA AB, priority 2018, dated 2022).
Counter-ions that a name gives are not always drawn. One block for each compound: values may come before it.

Legend:
[1] = Further stability studies: aqueous solutions stored 60 days at room temperature and/or 40° C. (HPLC-MS); assay type: physicochemical
Description: Aqueous solutions of several of the example compounds were prepared at concentrations of 1.2 mg/mL (10 mg/mL for Example 1 (no salt)) according to the following procedures. • i) Examples 1 b, 2h and 3 (diammonium salts) were dissolved in pure water. • ii) Examples 1d (diammonium salt) and 1n (monoammonium salt) were suspended in water and Na2HPO3 was added until all of the compound was in solution. • iii) Examples 1q, 4f an 4g (no salts) were dissolved in water with added DMSO (100 μL) and (2-hydroxypropyl)-β-cyclodextrin was added until all of the compound was in solution.
The stability of the compounds to long-term storage in aqueous solution at room temperature and/or 40° C. was then assessed by analysis of the solution by HPLC-MS after 60 days.

[2] = Comparative kinetic solubility in phosphate buffer pH 7.4 (HPLC-UV); assay type: physicochemical; conditions: aqueous buffer, kinetic from dmso stock, nominal 250 μM in 50 mM phosphate buffer pH 7.4, agitated 1 hour, filtered
Description: Samples of the compound of Example 1 and (2R)-2-[(2-amino-5-{[(1S)-1-phenylethyl]sulfanyl}-[1,3] thiazolo[4,5-d]pyrimidin-7-yl)amino]-4-methylpentan-1-ol. HCl (compound A) were diluted to a nominal concentration of 250 μM in 50 mM phosphate buffer pH 7.4 then agitated for 1 hour and filtered.
Standard solutions of the two compounds at concentrations of 25 and 250 μM in 50:50 acetontrile:water were prepared.
The solutions were then analysed by reverse phase HPLC with UV-detection, and solubility was determined by the ratio of the sample peaks to the standard curve.

[3] = Comparative stability of solutions on long-term storage at room temperature (HPLC-MS); assay type: physicochemical; conditions: for Degradation products observed on storage in aqueous solution: HPLC-MS, storage at room temperature; for Example 1 % area: aqueous solution (MilliQ water) 1.7 mg/mL; for Aqueous solubility (in words): dissolving in pure water / need for co-solvents; for Stability of aqueous formulations to storage (in words): room temperature; for Compound A % area: water + 20% MeOH, 1.75 mg/mL
[4] = Plasma concentration (AUC of plasma Compound A) in mice after intravenous and peroral administration; assay type: in vivo; conditions: blood 0.083-24 hours; for AUC: male, CD1, mouse, plasma
Description: (§1) A peroral dosing solution of Compound A (12 mg/mL) in 30% HP-β-CD in 10 mM Na2PO4 and an intravenous dosing solution of Compound A (2.5 mg/mL) in 30% HP-β-CD in 10 mM Na2PO4 in DPBS were prepared. The intravenous dosing solution was administered to male CD1 mice (weight 28-30 g) via intravenous injection (25 mg/kg) and the peroral dosing solution was administered to male CD1 mice (weight 28-30 g) via oral gavage (120 mg/kg).
Blood was collected from the animals at time points of 0.083, 0.25, 0.5, 1, 2, 4, 6, 12 and 24 hours and analysed for blood plasma concentration, and the data generated were used to calculate the area under the curve (AUC) values shown in Table 5.
as §1, with “Compound A HCl salt (12 mg/mL)” for “Compound A (12 mg/mL)”, “Compound A HCl salt (2.5 mg/mL)” for “Compound A (2.5 mg/mL)”, “oral gavage (125 mg/kg).” for “oral gavage (120 mg/kg).”
A peroral dosing solution of Example 1 disodium salt in water (15.4 mg/mL) at a pH of 7.18 and an intravenous dosing solution of Example 1 disodium salt in water (6.4 mg/mL) at a pH of 7.11 were prepared by dissolving Example 1 diammonium salt in water and adjusting the pH with 0.1M NaOH solution. The intravenous dosing solution was administered to male CD1 mice (weight 24-25 g) via tail injection (32 mg/kg) and the peroral dosing solution was administered to male CD1 mice (weight 24-25 g) via oral gavage (154 mg/kg).

[5] = aqueous solution 1.2 mg/mL, 40° C., 1d, 1n with Na2HPO3, 1q, 4f, 4g with DMSO and (2-hydroxypropyl)-β-cyclodextrin
[6] = aqueous solution 1.2 mg/mL, room temperature, 1d, 1n with Na2HPO3, 1q, 4f, 4g with DMSO and (2-hydroxypropyl)-β-cyclodextrin

% Area by HPLC (60 days) [1, 5]: 99.7 % Area
% Area by HPLC (60 days) [1, 6]: 98.0 % Area
Compound: CC(C)C[C@H](COP(=O)(O)O)Nc1nc(SC(C)c2ccc(Cl)cn2)nc2nc(N)sc12 (stereo partly drawn) [Example 1d, (2R)-2-[(2-Amino-5-{[1-(5-chloropyridin-2-yl)ethyl]sulfanyl}[1,3]thiazolo[4,5-d]pyrimidin-7-yl)amino]-4-methylpentyl dihydrogen phosphate]

solubility at 1 h [2]: 118 µM
Degradation products observed on storage in aqueous solution [3]: not observed
Example 1 % area ([3]; RT, 0 days of storage): 99.6 % area
Example 1 % area ([3]; RT, 4 days of storage): 99.6 % area
Example 1 % area ([3]; RT, 13 days of storage): 99.6 % area
Example 1 % area ([3]; RT, 20 days of storage): 99.6 % area
Example 1 % area ([3]; RT, 40 days of storage): 99.6 % area
% Area by HPLC (60 days) ([1]; Example 1 (no salt), aqueous solution 10 mg/mL, 40° C.): 100 % Area
Compound: CC(C)C[C@H](COP(=O)(O)O)Nc1nc(S[C@@H](C)c2ccccc2)nc2nc(N)sc12 [Example 1, (2R)-2-[(2-Amino-5-{[(1S)-1-phenylethyl]sulfanyl}[1,3]thiazolo[4,5-d]pyrimidin-7-yl)amino]-4-methylpentyl dihydrogen phosphate]
Aqueous solubility (in words) [3]: improved aqueous solubility (no co-solvents required)
Stability of aqueous formulations to storage (in words) [3]: unexpectedly pronounced stability over Compound A

Compound A remaining % ([3]; 1.18 mg/mL in water, polyethylene glycol 24% (v/v), RT, 0 days): 98.5%
Compound A remaining % ([3]; 1.18 mg/mL in water, polyethylene glycol 24% (v/v), RT, 3 days): 97.7%
Compound A remaining % ([3]; 1.18 mg/mL in water, polyethylene glycol 24% (v/v), RT, 56 days): 28%
Compound A remaining % ([3]; 1.22 mg/mL in water, polyethylene glycol 24% (v/v), RT, 0 days): 98.6%
Compound A remaining % ([3]; 1.22 mg/mL in water, polyethylene glycol 24% (v/v), RT, 3 days): 98.0%
Compound A remaining % ([3]; 1.22 mg/mL in water, polyethylene glycol 24% (v/v), RT, 56 days): 31%
Compound A remaining % ([3]; 2.25 mg/mL in water, polyethylene glycol 26% (v/v), RT, 0 days): 98.5%
Compound A remaining % ([3]; 2.25 mg/mL in water, polyethylene glycol 26% (v/v), RT, 3 days): 97.7%
Compound A remaining % ([3]; 2.25 mg/mL in water, polyethylene glycol 26% (v/v), RT, 56 days): 35%
Compound A remaining % ([3]; 3.2 mg/mL in water, polyethylene glycol 28% (v/v), ethanol 0, RT, 0 days): 98.4%
Compound A remaining % ([3]; 3.2 mg/mL in water, polyethylene glycol 28% (v/v), ethanol 0, RT, 14 days): 88.1%
Compound A remaining % ([3]; 3.2 mg/mL in water, polyethylene glycol 28% (v/v), ethanol 0, RT, 70 days): 60.7%
Compound A remaining % ([3]; 4.0 mg/mL in water, polyethylene glycol 25% (v/v), ethanol 3% (v/v), RT, 0 days): 98.4%
Compound A remaining % ([3]; 4.0 mg/mL in water, polyethylene glycol 25% (v/v), ethanol 3% (v/v), RT, 14 days): 92.3%
Compound A remaining % ([3]; 4.0 mg/mL in water, polyethylene glycol 25% (v/v), ethanol 3% (v/v), RT, 70 days): 75.1%
Aqueous solubility (in words) [3]: not possible to dissolve
Stability of aqueous formulations to storage (in words) [3]: unstable to storage at room temperature
Compound A % area ([3]; RT, 0 days): 98.4% area
Compound A % area ([3]; RT, 4 days): 96.7% area
Plasma Compound A AUC ([4]; male CD1 mice, IV, 25 mg/kg): 45.92 µM·h
AUC ([4]; po, 120 mg/kg, PO (oral gavage), 120 mg/kg (297 mol/kg)): 92.6 µM·h
Compound: CC(C)C[C@H](CO)Nc1nc(S[C@@H](C)c2ccccc2)nc2nc(N)sc12 [Compound A, (2R)-2-[(2-amino-5-{[(1S)-1-phenylethyl]thio}[1,3]thiazolo[4,5-d]pyrimidin-7-yl)amino]-4-methylpentan-1-ol]
Degradation products observed on storage in aqueous solution [3]: the debenzylated thiol and the corresponding disulfide together with phenyl ethanol and minor amounts of styrene

% Area by HPLC (60 days) [1, 5]: 100 % Area
% Area by HPLC (60 days) [1, 6]: 99.6 % Area
Compound: CC(C)C[C@H](COP(=O)(O)O)Nc1nc(S[C@@H](C)c2ccc(Cl)cn2)nc2[nH]c(=O)sc12 [Example 3, (2R)-2-[(5-{[(1S)-1-(5-chloropyridin-2-yl)ethyl]sulfanyl}-2-oxo-2,3-dihydro[1,3]thiazolo[4,5-d]pyrimidin-7-yl)amino]-4-methylpentyl dihydrogen phosphate]

% Area by HPLC (60 days) [1, 5]: 100 % Area
% Area by HPLC (60 days) [1, 6]: 98.2 % Area
Compound: CC(C)C[C@H](COP(=O)(O)OC(C)C)Nc1nc(S[C@@H](C)c2ccccc2)nc2nc(N)sc12 [Example 1n, (2R)-2-[(2-Amino-5-{[(1S)-1-phenylethyl]sulfanyl}[1,3]thiazolo[4,5-d]pyrimidin-7-yl)amino]-4-methylpentyl 1-methylethyl hydrogen phosphate]

% Area by HPLC (60 days) [1, 5]: 100 % Area
% Area by HPLC (60 days) [1, 6]: 100 % Area
Compound: CC(C)C[C@H](COP(=O)(O)O)Nc1nc(SC(C)c2ccccc2F)nc2nc(N)sc12 (stereo partly drawn) [Example 1b, (2R)-2-[(2-Amino-5-{[1-(2-fluorophenyl)ethyl]sulfanyl}[1,3]thiazolo[4,5-d]pyrimidin-7-yl)amino]-4-methylpentyl dihydrogen phosphate]

solubility at 1 h [2]: 5 µM
AUC ([4]; iv, 25 mg/kg): 50.1 µM·h
AUC ([4]; po, 125 mg/kg, PO (oral gavage), 125 mg/kg (284 mol/kg)): 170 µM·h
Compound: CC(C)C[C@H](CO)Nc1nc(S[C@@H](C)c2ccccc2)nc2nc(N)sc12 [Compound A •HCl, (2R)-2-[(2-amino-5-{[(1S)-1-phenylethyl]sulfanyl}-[1,3]thiazolo[4,5-d]pyrimidin-7-yl)amino]-4-methylpentan-1-ol. HCl]

% Area by HPLC (60 days) [1, 5]: 82.2 % Area
% Area by HPLC (60 days) [1, 6]: 92.3 % Area
Compound: CC(C)C[C@H](CO)Nc1nc(S[C@@H](C)c2ccc(Cl)cn2)nc2c1sc(=O)n2COP(=O)(O)O [Example 2h, [5-{[(1S)-1-(5-Chloropyridin-2-yl)ethyl]sulfanyl}-7-{[(1R)-1-(hydroxymethyl)-3-methylbutyl]amino}-2-oxo[1,3]thiazolo[4,5-d]pyrimidin-3(2H)-yl]methyl dihydrogen phosphate]
